From patent US10934304B2, “Spirocyclic compounds” (Recurium IP Holdings, LLC, priority 2016, dated 2021)
pIC50: −log10 of the molar value.

How the values were obtained:
[1] = test system: A375 (melanoma) cells; test: Proliferation Assay (CellTiter-Glo); format: cell-based; conditions: 3 days incubation, CellTiter-Glo luminescence
Protocol: A375 (melanoma), Colo-205 (colon cancer), Miapaca (pancreatic), HPAFII (pancreatic), sNF02.0 (neurofibromatosis type 1), sNF96.2 (neurofibromatosis type 1) and 8505 (Thyroid) cells were grown and maintained in RPMI-1640 medium containing 100 U/mL penicillin-streptomycin and 10% fetal bovine serum. Cells were in growth medium in 96-well opaque-walled clear bottom plates and incubated in the CO2 incubator overnight before treatment. Cells were treated with compounds diluted in DMSO and a 10 point 3-fold serial dilutions were done. Plates were placed in 37° C., 5% CO2 to incubate for 3 days. Before they were developed by adding 100 μL of CellTiter-Glo reagent (Promega) to the assay plate, plates were shaken briefly for 2 mins and allowed to incubate at room temperature for 10 mins. The bottom of the plates was pasted with white back seal and luminescence was recorded with Flexstation3 with setting of luminescence, integration time 500 ms.
Compounds of Formula (I), (II) and (III) are active in this assay as noted in Table 2.

[2] = target: ERK2 (Homo sapiens (Human), UniProt P28482); test: Active ERK1 and ERK2 Kinase Assay (Mobility Shift Assay); format: biochemical; conditions: activated ERK2, Mobility Shift Assay
Protocol: Activated ERK1 and ERK2 activity was determined in a Mobility Shift Assay (MSA) format as follows: Compound and kinase solution were prepared with assay buffer (20 mM HEPES, 0.01% Triton X-100, 2 mM DTT, pH7.5) and mixed and incubated in for 30 mins at rt. ERK1 & ERK2 were then activated by the addition of F1-Substrate, ATP and metal solution and incubated for 1 h at rt. After 1 h, the reaction was terminated by the addition of […] of Termination Buffer (QuickScout Screening Assist MSA; Carna Biosciences) to the well. The reaction mixture was applied to LabChip™ system (PerkinElmer), and the product and substrate peptide peaks were separated, analyzed and quantitated. The kinase reaction is evaluated by the product ratio calculated from peak heights of product (P) and substrate(S) peptides (P/(P+S)).

Chain of ERK2 (P28482 whole entry): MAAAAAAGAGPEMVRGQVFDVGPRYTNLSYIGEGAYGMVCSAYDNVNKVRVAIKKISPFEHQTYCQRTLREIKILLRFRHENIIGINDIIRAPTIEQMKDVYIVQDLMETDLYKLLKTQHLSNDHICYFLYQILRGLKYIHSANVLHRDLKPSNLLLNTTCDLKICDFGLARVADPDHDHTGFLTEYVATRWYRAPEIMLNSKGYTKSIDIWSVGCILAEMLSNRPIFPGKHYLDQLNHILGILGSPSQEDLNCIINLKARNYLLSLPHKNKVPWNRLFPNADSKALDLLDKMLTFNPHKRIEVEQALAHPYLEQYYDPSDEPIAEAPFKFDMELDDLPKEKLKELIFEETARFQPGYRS

| pIC50 ([1]; Homo sapiens, A-375, 72 h) | pIC50 [2] | pIC50 [1] | Structure (SMILES) |
| --- | --- | --- | --- |
| 6.00 to 6.30 | ≥ 7.30 |  | Cn1cnc(-c2ccc(C3=CCN(C(=O)CN4CC[C@]5(CCN(c6ccc7[nH]nc(-c8cnc(C#N)c(C(F)(F)F)c8)c7c6)C5=O)C4)CC3)cc2)n1 [Example 10] |
| ≥ 6.30 | ≥ 7.30 |  | Cn1cnc(-c2ccc(C3=CCN(C(=O)CN4CC[C@]5(CCN(c6ccc7[nH]nc(C8CCOCC8)c7n6)C5=O)C4)CC3)cc2)n1 [Example 22, (S)-7-(2-(4-(4-(1-Methyl-1H-1,2,4-triazol-3-yl)phenyl)-5,6-dihydropyridin-1(2H)-yl)-2-oxoethyl)-2-(3-(tetrahydro-2H-pyran-4-yl)-1H-pyrazolo[4,3-b]pyridin-5-yl)-2,7-diazaspiro[4.4]nonan-1-one] |
|  | ≥ 7.30 | ≥ 6.30 | Cn1cnc(-c2ccc(N3CCN(C(=O)CN4CC[C@]5(CCN(c6ccc7[nH]nc(-c8ccc(F)cn8)c7c6)C5=O)C4)CC3)cc2)n1 [Example 56] |
|  | ≥ 7.30 | ≥ 6.30 | COc1ccc(-c2n[nH]c3ccc(N4CC[C@]5(CCN(CC(=O)N6CC=C(c7ccc(-c8ncn(C)n8)cc7)CC6)C5)C4=O)nc23)cc1OC [Example 92] |
|  | ≥ 7.30 | ≥ 6.30 | COc1cccc(-c2n[nH]c3ccc(N4CC[C@]5(CCN(CC(=O)N6CC=C(c7ccc(-c8ncn(C)n8)cc7)CC6)C5)C4=O)cc23)n1 [Example 61] |
| ≥ 6.30 | ≥ 7.30 |  | Cn1nc(-c2ccc(C3=CCN(C(=O)CN4CC[C@]5(CCN(c6ccc7[nH]nc(C8=CCOCC8)c7c6)C5=O)C4)CC3)cc2)oc1=O [Example 32] |
| ≥ 6.30 | ≥ 7.30 |  | Cn1cnc(-c2ccc(C3=CCN(C(=O)CN4CC[C@]5(CCN(c6ccc7[nH]nc(C8CCOC8)c7c6)C5=O)C4)CC3)cc2)n1 (stereo partly drawn) [Example 13, (5S)-7-(2-(4-(4-(1-Methyl-1H-1,2,4-triazol-3-yl)phenyl)-5,6-dihydropyridin-1(2H)-yl)-2-oxoethyl)-2-(3-(tetrahydrofuran-3-yl)-1H-indazol-5-yl)-2,7-diazaspiro[4.4]nonan-1-one] |
|  | ≥ 7.30 | 6.00 to 6.30 | Cn1cnc(-c2ccc(C3=CCN(C(=O)CN4CC[C@]5(CCN(c6ccc7[nH]nc(-c8ccc9c(c8)OC(C)(C)O9)c7n6)C5=O)C4)CC3)cc2)n1 [Example 62] |
| ≥ 6.30 | ≥ 7.30 |  | CNC(=O)c1ccc(-c2n[nH]c3ccc(N4CC[C@]5(CCN(CC(=O)N6CC=C(c7ccc(-c8ncn(C)n8)cc7)CC6)C5)C4=O)cc23)cn1 [Example 6] |
| ≥ 6.30 | ≥ 7.30 |  | Cn1cnc(-c2ccc(C3=CCN(C(=O)CN4CC[C@]5(CCN(c6ccc7[nH]nc(C8=CCOCC8)c7n6)C5=O)C4)CC3)cc2)n1 [Example 26] |
|  | ≥ 7.30 | ≥ 6.30 | Cn1cnc(-c2ccc(N3CCN(C(=O)CN4CC[C@]5(CCN(c6ccc7[nH]nc(-c8ccc(F)cn8)c7c6)C5=O)C4)CC3)nc2)n1 [Example 57] |
| ≥ 6.30 | ≥ 7.30 |  | Cn1cnc(-c2ccc(C3=CCN(C(=O)CN4CC[C@]5(CCN(c6ccc7[nH]nc(-c8cnn(C)n8)c7c6)C5=O)C4)CC3)cc2)n1 [Example 58, (S)-7-(2-(4-(4-(1-methyl-1H-1,2,4-triazol-3-yl)phenyl)-3,6-dihydropyridin-1(2H)-yl)-2-oxoethyl)-2-(3-(2-methyl-2H-1,2,3-triazol-4-yl)-1H-indazol-5-yl)-2,7-diazaspiro[4.4]nonan-1-one] |
| 6.00 to 6.30 | ≥ 7.30 |  | Cn1cnc(-c2ccc(C3=CCN(C(=O)CN4CC[C@]5(CCN(c6ccc7[nH]nc(C89CC(C#N)(C8)C9)c7c6)C5=O)C4)CC3)cc2)n1 [Example 73, (S)-3-(5-(7-(2-(4-(4-(1-Methyl-1H-1,2,4-triazol-3-yl)phenyl)-5,6-dihydropyridin-1(2H)-yl)-2-oxoethyl)-1-oxo-2,7-diazaspiro[4.4]nonan-2-yl)-1H-indazol-3-yl)bicyclo[1.1.1]pentane-1-carbonitrile] |
|  | ≥ 7.30 | ≥ 6.30 | CC(C)Oc1ccc(-c2n[nH]c3ccc(N4CC[C@]5(CCN(CC(=O)N6CCN(c7ccc(-c8ncn(C)n8)cc7)CC6)C5)C4=O)nc23)cn1 [Example 82] |
|  | ≥ 7.30 | ≥ 6.30 | Cn1nc(-c2ccc(C3=CCN(C(=O)CN4CCC5(CCN(c6ccc7[nH]nc(C8CCOCC8)c7n6)C5=O)C4)CC3)cc2)oc1=O (stereo not drawn) [Example 23] |
| ≥ 6.30 | ≥ 7.30 |  | Cn1cnc(-c2ccc(C3=CCN(C(=O)CN4CC[C@]5(CCN(c6ccc7[nH]nc(-c8ccc(F)cn8)c7c6)C5=O)C4)CC3)cc2)n1 [Example 28, (S)-2-(3-(5-Fluoropyridin-2-yl)-1H-indazol-5-yl)-7-(2-(4-(4-(1-methyl-1H-1,2,4-triazol-3-yl)phenyl)-5,6-dihydropyridin-1(2H)-yl)-2-oxoethyl)-2,7-diazaspiro[4.4]nonan-1-one] |
| ≥ 6.30 | ≥ 7.30 |  | CC(C)n1cc(-c2n[nH]c3ccc(N4CC[C@]5(CCN(CC(=O)N6CC=C(c7ccc(-c8ncn(C)n8)cc7)CC6)C5)C4=O)nc23)cn1 [Example 40] |
|  | ≥ 7.30 | ≥ 6.30 | Cn1cnc(-c2ccc(C3=CCN(C(=O)CN4CC[C@]5(CCN(c6ccc7[nH]nc(-c8ccc(OC9CCC9)nc8)c7n6)C5=O)C4)CC3)cc2)n1 [Example 77] |
| ≥ 6.30 | ≥ 7.30 |  | Cn1cnc(-c2ccc(C3=CCN(C(=O)CN4CC[C@]5(CCN(c6ccc7[nH]nc(-c8ccc(C#N)cn8)c7c6)C5=O)C4)CC3)cc2)n1 [Example 29] |
|  | ≥ 7.30 | 6.00 to 6.30 | COc1cnc(-c2n[nH]c3ccc(N4CC[C@]5(CCN(CC(=O)N6CCC(c7ccc(-c8ncn(C)n8)cc7)CC6)C5)C4=O)cc23)c(F)c1 [Example 74] |
|  | ≥ 7.30 | ≥ 6.30 | CCOc1ccc(-c2n[nH]c3ccc(N4CC[C@]5(CCN(CC(=O)N6CC=C(c7ccc(-c8ncn(C)n8)cc7)CC6)C5)C4=O)nc23)cn1 [Example 81] |
|  | ≥ 7.30 | ≥ 6.30 | CC(C)Sc1ccc(-c2n[nH]c3ccc(N4CC[C@]5(CCN(CC(=O)N6CC=C(c7ccc(-c8ncn(C)n8)cc7)CC6)C5)C4=O)nc23)cn1 [Example 76] |
|  | ≥ 7.30 | 6.00 to 6.30 | Cn1cnc(-c2ccc(C3=CCN(C(=O)CN4CC[C@]5(CCN(c6ccc7[nH]nc(-c8cnn(C)n8)c7n6)C5=O)C4)CC3)cc2)n1 [Example 59] |
|  | ≥ 7.30 | ≥ 6.30 | CC(C)Oc1ccc(-c2n[nH]c3ccc(N4CC[C@]5(CCN(CC(=O)N6CCN(c7ccc(-c8ncn(C)n8)cn7)CC6)C5)C4=O)nc23)cn1 [Example 84] |
|  | ≥ 7.30 | ≥ 6.30 | COc1ccc(-c2n[nH]c3ccc(N4CC[C@]5(CCN(CC(=O)N6CC=C(c7ccc(-c8ncn(C)n8)s7)CC6)C5)C4=O)nc23)cn1 [Example 66] |
|  | ≥ 7.30 | ≥ 6.30 | CC(C)Oc1ccc(-c2n[nH]c3ccc(N4CC[C@]5(CCN(CC(=O)N6CC=C(c7ccc(-c8ncn(CCO)n8)cc7)CC6)C5)C4=O)nc23)cn1 [Example 89] |

| Structure (SMILES) | pIC50 ([1]; Homo sapiens, A-375, 72 h) | pIC50 [2] | pIC50 [1] |
| --- | --- | --- | --- |
| Cc1ccc(-c2n[nH]c3ccc(N4CC[C@]5(CCN(CC(=O)N6CC=C(c7ccc(-c8ncn(C)n8)cc7)CC6)C5)C4=O)nc23)cn1 [Example 20] |  | ≥ 7.30 | ≥ 6.30 |
| Cn1cnc(-c2ccc(C3=CCN(C(=O)CN4CCC5(CCN(c6ccc7[nH]nc(N8CCOCC8)c7n6)C5=O)C4)CC3)cc2)n1 (stereo not drawn) [Example 49] |  | ≥ 7.30 | ≥ 6.30 |
| COc1ccc(-c2n[nH]c3ccc(N4CC[C@]5(CCN(CC(=O)N6CC=C(c7ccc(-c8nn(C)c(=O)o8)cc7)CC6)C5)C4=O)cc23)cn1 [Example 19] |  | ≥ 7.30 | ≥ 6.30 |
| Cn1nc(-c2ccc(C3=CCN(C(=O)CN4CC[C@]5(CCN(c6ccc7[nH]nc(-c8ccc(F)cc8)c7c6)C5=O)C4)CC3)cc2)oc1=O [Example 18] |  | ≥ 7.30 | ≥ 6.30 |
| Cc1ccc(-c2n[nH]c3ccc(N4CC[C@]5(CCN(CC(=O)N6CC=C(c7ncc(-c8ncn(C)n8)s7)CC6)C5)C4=O)nc23)cn1 [Example 43] |  | ≥ 7.30 | ≥ 6.30 |
| Cn1cnc(-c2ccc(N3CCN(C(=O)CN4CC[C@]5(CCN(c6ccc7[nH]nc(-c8ccc(F)cc8)c7n6)C5=O)C4)CC3)nc2)n1 [Example 45] |  | ≥ 7.30 | ≥ 6.30 |
| C[C@@H]1CN(c2n[nH]c3ccc(N4CC[C@]5(CCN(CC(=O)N6CC=C(c7ccc(-c8ncn(C)n8)cc7)CC6)C5)C4=O)nc23)C[C@H](C)O1 [Example 48] |  | ≥ 7.30 | 6.00 to 6.30 |
| Cn1cnc(-c2cnc(C3=CCN(C(=O)CN4CC[C@]5(CCN(c6ccc7[nH]nc(-c8ccc(F)cc8)c7c6)C5=O)C4)CC3)s2)n1 [Example 17] |  | ≥ 7.30 | ≥ 6.30 |
| COc1ccc(-c2n[nH]c3ccc(N4CC[C@]5(CCN(CC(=O)N6CC=C(c7ccc(-c8ncn(C)n8)cc7)CC6)C5)C4=O)nc23)cn1 [Example 21] |  | ≥ 7.30 | ≥ 6.30 |
| COc1ccc(-c2n[nH]c3ccc(N4CC[C@]5(CCN(CC(=O)N6CCN(c7ccc(-c8ncn(C)n8)cn7)CC6)C5)C4=O)nc23)cn1 [Example 46] |  | ≥ 7.30 | ≥ 6.30 |
